In US20210267996A1, “Compounds for inhibition of inflammation” (Children`s Medical Center Corporation, priority 2018, published 2021):

Assays:
[1] = biological target: T1, Human GSDMD (Homo sapiens, UniProt P57764); test: Liposome leakage assay (Tb3+/DPA), GSDMD plus caspase-11; format: biochemical; details: for IC50: WT GSDMD, caspase-11-triggered, read-out: IC50 of liposome leakage
T1 construct: His6-MBP (N, cleaved yes); made in house; host or cells: E. coli BL21 (DE3) for GSDMD; Sf9 for caspase-11
T1 sequence (P57764 1-484): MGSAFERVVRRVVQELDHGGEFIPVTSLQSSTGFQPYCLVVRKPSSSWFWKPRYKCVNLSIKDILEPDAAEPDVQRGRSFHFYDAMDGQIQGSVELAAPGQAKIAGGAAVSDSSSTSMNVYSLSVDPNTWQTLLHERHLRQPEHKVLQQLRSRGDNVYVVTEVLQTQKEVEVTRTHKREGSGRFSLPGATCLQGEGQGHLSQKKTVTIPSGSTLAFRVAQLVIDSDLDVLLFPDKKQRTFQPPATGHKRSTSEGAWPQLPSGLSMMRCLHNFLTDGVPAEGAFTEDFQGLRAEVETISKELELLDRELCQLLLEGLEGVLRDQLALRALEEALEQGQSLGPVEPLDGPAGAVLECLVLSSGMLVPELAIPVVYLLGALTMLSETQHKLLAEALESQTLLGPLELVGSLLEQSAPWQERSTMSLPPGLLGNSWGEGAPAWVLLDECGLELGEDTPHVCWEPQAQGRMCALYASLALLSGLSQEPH
Procedure: The lipid mixture was suspended in 1 mL Buffer A (20 mM HEPES, 150 mM NaCl, 50 mM sodium citrate, and 15 mM TbCl3) for 3 min. The suspension was pushed through 100 nm Whatman® Nuclepore™ Track-Etched Membrane 30 times to obtain homogeneous liposomes. The filtered suspension was purified by size exclusion column (Superose 6, 10/300 GL) in Buffer B (20 mM HEPES, 150 mM NaCl) to remove TbCl3 outside liposomes. […] The liposomes are diluted to 50 μM with Buffer C (20 mM HEPES, 150 mM NaCl and 50 μM DPA) for use in high-throughput screening.

[2] = biological target: T2, caspase-1 (Homo sapiens, UniProt P29466); test: Caspase-1 inhibition assay (Ac-YVAD-AMC); format: biochemical
T2 sequence (P29466 120-404): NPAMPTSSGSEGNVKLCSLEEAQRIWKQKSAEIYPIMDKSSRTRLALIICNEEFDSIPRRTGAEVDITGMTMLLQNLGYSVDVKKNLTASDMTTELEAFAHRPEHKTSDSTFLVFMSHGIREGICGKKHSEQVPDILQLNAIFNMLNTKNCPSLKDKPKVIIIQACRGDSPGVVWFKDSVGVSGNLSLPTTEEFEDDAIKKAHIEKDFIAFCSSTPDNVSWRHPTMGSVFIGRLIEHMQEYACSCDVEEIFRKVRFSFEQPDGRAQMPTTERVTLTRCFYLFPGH
Procedure: Caspase-1 and caspase-11 inhibition assays: the fluorogenic assay for caspase-1 and caspase-11 activity is based on release of 7-amino-4-methylcoumarin (AMC) from the caspase substrate Ac-YVAD-AMC. Compounds (8 nM-50 μM) were incubated with 0.5 U of caspase-1 or caspase-11 for 30 min in assay buffer (20 mM HEPES, 150 mM NaCl) in 384-well plates (Corning 3820) before addition of Ac-YVAD-AMC (40 μM) to initiate the reactions. Reactions were monitored in a SpectraMax M5 plate reader (Molecular Devices, Sunnyvale, Calif. USA) with excitation/emission wavelengths at 350/460 nm. The fluorescence intensity of each reaction was recorded every 2 min for 2 hrs.
Fluorescence intensity at 460 nm was measured after excitation at 350 nm.

Row | Compound | IC50 [1] | incubation time to inhibition of liposome leakage ([1]; time course, preincubation 2-90 min) | effect of copper gluconate (Cu2+) on inhibition of liposome leakage ([1]; with Cu2+) | IC50 [2] | effect of Cu(II) on caspase-1 inhibition ([2]; with Cu(II)) | times less active than disulfiram at inhibiting liposome leakage ([1]; GSDMD plus caspase-11) | caspase-1 inhibition [2]
1 | CCN(CC)C(=S)SSC(=S)N(CC)CC [C-23, Tetraethylthiuram disulfide] | ~300 nM | ≤ 2 min | only weakly increased | 150 ± 40 nM | did not strongly change |  | 
2 | Cc1ccc(S(=O)(=O)/C=C/C#N)cc1 [Bay 11-7082] | 6810 ± 100 nM |  |  |  |  | 23 fold | inhibited
